Results published in publication PMC4979471 (Cell Death Discovery, 2015).
Like-named read-outs stand apart in the source and are kept apart here.

How the values were obtained:
Assay in all cases: Kinase selectivity, P33-radiolabeled assay
Type in all cases: biochemical
Conditions in all cases: 10 μM ATP
[1] = target: T1, DLK/MAP3K12 (Homo sapiens, UniProt Q12852)
T1 construct: purchased Reaction Biology Corp
T1 sequence (Q12852 1-859): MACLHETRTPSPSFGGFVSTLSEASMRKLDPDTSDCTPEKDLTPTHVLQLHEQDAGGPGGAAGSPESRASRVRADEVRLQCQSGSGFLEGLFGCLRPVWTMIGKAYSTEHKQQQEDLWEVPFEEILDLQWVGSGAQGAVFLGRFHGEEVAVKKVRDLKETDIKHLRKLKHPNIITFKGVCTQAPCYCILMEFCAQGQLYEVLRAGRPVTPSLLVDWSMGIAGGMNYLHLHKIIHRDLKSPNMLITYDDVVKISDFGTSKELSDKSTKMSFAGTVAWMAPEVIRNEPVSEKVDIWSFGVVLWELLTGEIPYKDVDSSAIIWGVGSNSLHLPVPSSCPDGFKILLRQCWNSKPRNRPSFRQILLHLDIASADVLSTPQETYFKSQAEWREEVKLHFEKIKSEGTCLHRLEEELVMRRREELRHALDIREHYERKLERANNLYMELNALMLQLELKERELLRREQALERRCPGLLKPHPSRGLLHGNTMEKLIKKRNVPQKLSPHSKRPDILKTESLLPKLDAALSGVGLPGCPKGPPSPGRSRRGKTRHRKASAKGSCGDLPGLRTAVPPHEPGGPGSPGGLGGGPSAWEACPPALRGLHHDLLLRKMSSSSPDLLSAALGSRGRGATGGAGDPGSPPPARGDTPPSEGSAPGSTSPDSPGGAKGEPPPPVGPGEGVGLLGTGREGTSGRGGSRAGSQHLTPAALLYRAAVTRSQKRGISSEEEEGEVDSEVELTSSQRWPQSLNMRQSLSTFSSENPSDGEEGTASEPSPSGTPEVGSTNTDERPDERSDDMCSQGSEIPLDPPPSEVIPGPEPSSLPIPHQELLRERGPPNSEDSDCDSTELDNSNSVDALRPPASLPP
Outline: (§1)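 ATP at 10 μM; test article at 10 μM, single point, two replicates. Output is activity as % of DMSO.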

[2] = target: T2, DYRK2 (Homo sapiens, UniProt Q92630)
T2 construct: purchased Reaction Biology Corp
T2 sequence (Q92630 1-601): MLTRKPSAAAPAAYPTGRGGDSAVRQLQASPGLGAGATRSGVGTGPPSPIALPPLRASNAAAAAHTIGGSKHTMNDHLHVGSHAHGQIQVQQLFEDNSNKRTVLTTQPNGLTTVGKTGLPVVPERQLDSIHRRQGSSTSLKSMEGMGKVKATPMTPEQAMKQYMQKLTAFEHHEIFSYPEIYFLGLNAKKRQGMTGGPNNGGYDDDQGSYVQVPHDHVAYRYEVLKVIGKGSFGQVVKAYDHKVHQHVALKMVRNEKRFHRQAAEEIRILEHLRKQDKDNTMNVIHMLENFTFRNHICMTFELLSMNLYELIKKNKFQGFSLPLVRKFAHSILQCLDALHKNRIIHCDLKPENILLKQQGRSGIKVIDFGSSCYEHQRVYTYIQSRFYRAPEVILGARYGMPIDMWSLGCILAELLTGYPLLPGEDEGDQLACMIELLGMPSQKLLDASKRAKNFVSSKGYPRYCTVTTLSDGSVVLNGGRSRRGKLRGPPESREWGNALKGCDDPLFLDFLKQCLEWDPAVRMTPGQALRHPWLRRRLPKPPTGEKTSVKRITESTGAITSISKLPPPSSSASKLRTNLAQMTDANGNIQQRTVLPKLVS
Outline: as §1

[3] = target: T3, TAOK1 (Homo sapiens, UniProt Q7L7X3)
T3 construct: purchased Reaction Biology Corp
T3 sequence (Q7L7X3 1-1001): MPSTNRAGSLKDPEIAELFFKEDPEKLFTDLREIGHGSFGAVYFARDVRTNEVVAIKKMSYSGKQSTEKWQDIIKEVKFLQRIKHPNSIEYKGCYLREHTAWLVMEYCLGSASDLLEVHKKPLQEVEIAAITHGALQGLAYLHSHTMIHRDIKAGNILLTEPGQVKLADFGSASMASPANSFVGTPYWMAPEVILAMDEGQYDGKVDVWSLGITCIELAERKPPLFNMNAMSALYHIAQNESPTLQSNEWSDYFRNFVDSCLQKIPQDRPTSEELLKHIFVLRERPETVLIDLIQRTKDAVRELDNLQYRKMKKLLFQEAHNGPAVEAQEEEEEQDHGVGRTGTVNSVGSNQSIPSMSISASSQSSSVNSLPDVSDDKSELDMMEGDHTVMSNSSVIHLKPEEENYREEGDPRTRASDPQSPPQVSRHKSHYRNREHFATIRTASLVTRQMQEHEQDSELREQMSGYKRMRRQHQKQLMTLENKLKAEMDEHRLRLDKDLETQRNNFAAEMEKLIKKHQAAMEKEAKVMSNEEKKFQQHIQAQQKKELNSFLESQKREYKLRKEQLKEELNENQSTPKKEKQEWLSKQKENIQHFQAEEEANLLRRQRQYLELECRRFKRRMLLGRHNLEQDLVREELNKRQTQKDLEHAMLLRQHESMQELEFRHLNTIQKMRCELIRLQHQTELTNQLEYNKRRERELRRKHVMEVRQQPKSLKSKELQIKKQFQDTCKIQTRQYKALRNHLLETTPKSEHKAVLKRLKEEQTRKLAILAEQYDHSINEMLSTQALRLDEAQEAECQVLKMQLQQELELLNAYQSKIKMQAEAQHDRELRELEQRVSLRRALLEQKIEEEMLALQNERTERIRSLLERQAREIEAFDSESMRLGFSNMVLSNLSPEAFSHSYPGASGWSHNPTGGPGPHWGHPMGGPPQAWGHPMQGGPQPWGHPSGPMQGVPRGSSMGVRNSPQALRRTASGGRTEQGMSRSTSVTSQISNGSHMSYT
Outline: as §1

[4] = read-out: % Enzyme Activity (relative to DMSO controls) AVG
[5] = read-out: % Enzyme Activity (relative to DMSO controls) Data 1
[6] = read-out: % Enzyme Activity (relative to DMSO controls) Data 2

CC(C)(C)C(=O)N1N=CC[C@H]1c1ccccc1 [GSK′963] showed a remaining activity at 10 µM [1, 4] of 104%, a remaining activity at 10 µM [1, 5] of 106% and a remaining activity at 10 µM [1, 6] of 102%. It also gave a remaining activity at 10 µM [2, 4] of 97.7%, a remaining activity at 10 µM [2, 5] of 96.9% and a remaining activity at 10 µM [2, 6] of 98.4%. The remaining activity at 10 µM [3, 4] was 99.3%, the remaining activity at 10 µM [3, 5] was 101% and the remaining activity at 10 µM [3, 6] was 97.8%.
